Target: T1, Interleukin-1 receptor-associated kinase 4 (Homo sapiens, UniProt Q9NWZ3)
T1 sequence (Q9NWZ3 whole entry): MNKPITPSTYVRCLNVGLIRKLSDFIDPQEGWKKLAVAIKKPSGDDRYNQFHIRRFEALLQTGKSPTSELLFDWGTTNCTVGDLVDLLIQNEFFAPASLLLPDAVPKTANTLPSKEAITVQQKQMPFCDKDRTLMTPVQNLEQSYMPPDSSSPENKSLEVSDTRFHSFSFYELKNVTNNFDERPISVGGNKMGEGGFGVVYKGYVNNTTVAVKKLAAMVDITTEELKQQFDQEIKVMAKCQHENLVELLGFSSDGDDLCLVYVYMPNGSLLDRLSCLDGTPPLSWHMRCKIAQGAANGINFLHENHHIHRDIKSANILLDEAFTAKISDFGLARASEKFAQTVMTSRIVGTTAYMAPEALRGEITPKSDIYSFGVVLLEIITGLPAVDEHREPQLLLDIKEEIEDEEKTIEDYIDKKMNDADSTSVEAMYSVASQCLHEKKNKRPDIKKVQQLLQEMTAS
Assay: Inhibition of IRAK4 (unknown origin) using FL- IPTSPITTTYFFFKKK peptide as substrate in presence of ATP incubated for 60 mins by fluorescence assay

- IC50: 1.9 nM
Structure (SMILES): CC(C)Nc1c(C(=O)NCCC2CCNC2)cnc2c1[nH]c1cc(C#N)ccc12 (stereo unspecified)

— ChEMBL document CHEMBL5038673, “Novel Tricyclic Heteroaryl Compounds as IRAK4 Inhibitors for Treating Cancer, Autoimmune and Inflammatory Diseases” (ACS Med Chem Lett, 2022)
